Source: patent US20220324815A1, “2-PHENOXY-PYRIMIDINE DERIVATIVES AS HERBICIDAL COMPOUNDS” (SYNGENTA CROP PROTECTION AG, priority 2019, published 2022)

What was measured:
Format in all cases: in vivo
Conditions in all cases: 250 g/ha unless otherwise stated, evaluated after 13 days, five-point scale
[1] = tested on: Amaranthus retoflexus (AMARE); assay: Test 1 glasshouse herbicide test, pre-emergence application (Table B2)
Summary of the method: (§1)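 Pots sown in standard soil; sprayed 1 day (pre-emergence) or 8 days (post-emergence) after sowing at 250 g/ha unless stated, in acetone/water (50:50) with 0.5% Tween 20. Glasshouse 24/16 °C, 14 h light, 65% humidity; damage scored at 13 days on a 1–5 scale (5=81–100%, 1=0–20%).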

[2] = tested on: Echinochloa crus-galli (ECHCG); assay: as above
Summary of the method: as §1

Setaria faberi (SETFA) [3] = assay: as above
Summary of the method: as §1

[4] = tested on: Ipomoea hederacea (IPOHE); assay: as above
Summary of the method: as §1

[5] = tested on: Amaranthus retoflexus (AMARE); assay: Test 1 glasshouse herbicide test, post-emergence application (Table B1)
Summary of the method: as §1

[6] = tested on: Echinochloa crus-galli (ECHCG); assay: as above
Summary of the method: as §1

Setaria faberi (SETFA) [7] = assay: as above
Summary of the method: as §1

[8] = tested on: Ipomoea hederacea (IPOHE); assay: as above
Summary of the method: as §1

| Structure (SMILES) | % phytotoxicity AMARE, pre-emergence application [1] | % phytotoxicity ECHCG, pre-emergence application [2] | % phytotoxicity SETFA, pre-emergence application (Setaria faberi (SETFA) [3]) | % phytotoxicity IPOHE, pre-emergence application [4] | % phytotoxicity AMARE, post-emergence application [5] | % phytotoxicity ECHCG, post-emergence application [6] | % phytotoxicity SETFA, post-emergence application (Setaria faberi (SETFA) [7]) | % phytotoxicity IPOHE, post-emergence application [8] |
| --- | --- | --- | --- | --- | --- | --- | --- | --- |
| CC(C)CS(=O)(=O)c1ccccc1Oc1ncc(Cl)cn1 [Compound A76] | 5 (5=81 to 100%) | 3 (3=41 to 60%) | 4 (4=61 to 80%) | 2 (2=21 to 40%) | 1 (1=0 to 20%) | 2 (2=21 to 40%) | 1 (1=0 to 20%) | 2 (2=21 to 40%) |
| CCCCCCS(=O)(=O)c1ccccc1Oc1ncc(Cl)cn1 [Compound A77] | 4 (4=61 to 80%) | 3 (3=41 to 60%) | 1 (1=0 to 20%) | 1 (1=0 to 20%) | 2 (2=21 to 40%) | 1 (1=0 to 20%) | 1 (1=0 to 20%) | 1 (1=0 to 20%) |
| O=S(=O)(CCCF)c1ccccc1Oc1ncc(Cl)cn1 [Compound A82] | 5 (5=81 to 100%) | 3 (3=41 to 60%) | 3 (3=41 to 60%) | 1 (1=0 to 20%) | 3 (3=41 to 60%) | 1 (1=0 to 20%) | 1 (1=0 to 20%) | 3 (3=41 to 60%) |
| CCC(CC)CS(=O)(=O)c1ccccc1Oc1ncc(Cl)cn1 [Compound A87] | 1 (1=0 to 20%) | 1 (1=0 to 20%) | 1 (1=0 to 20%) | 1 (1=0 to 20%) | 1 (1=0 to 20%) | 1 (1=0 to 20%) | 1 (1=0 to 20%) | 1 (1=0 to 20%) |
| CCC(C)S(=O)(=O)c1ccccc1Oc1ncc(Cl)cn1 (stereo not drawn) [Compound A88] | 5 (5=81 to 100%) | 1 (1=0 to 20%) | 5 (5=81 to 100%) | 2 (2=21 to 40%) | 2 (2=21 to 40%) | 1 (1=0 to 20%) | 1 (1=0 to 20%) | 1 (1=0 to 20%) |
| O=S(=O)(Cc1cccc(Cl)c1)c1ccccc1Oc1ncc(Cl)cn1 [Compound A89] | 1 (1=0 to 20%) | 1 (1=0 to 20%) | 1 (1=0 to 20%) | 1 (1=0 to 20%) | 3 (3=41 to 60%) | 1 (1=0 to 20%) | 1 (1=0 to 20%) | 1 (1=0 to 20%) |
| N#Cc1cccc(Oc2ncc(Cl)cn2)c1S(=O)(=O)CCCCC(F)(F)F [Compound A91] | 5 (5=81 to 100%) | 5 (5=81 to 100%) | 5 (5=81 to 100%) | 5 (5=81 to 100%) | 5 (5=81 to 100%) | 5 (5=81 to 100%) | 4 (4=61 to 80%) | 4 (4=61 to 80%) |
| N#Cc1cccc(Oc2ncc(Cl)cn2)c1S(=O)(=O)CCCCCC(F)(F)F [Compound A92] | 5 (5=81 to 100%) | 4 (4=61 to 80%) | 4 (4=61 to 80%) | 1 (1=0 to 20%) | 5 (5=81 to 100%) | 3 (3=41 to 60%) | 2 (2=21 to 40%) | 2 (2=21 to 40%) |
| FC(F)CCSc1c(Cl)cccc1Oc1ncc(Cl)cn1 [Compound A94] | 5 (5=81 to 100%) | 5 (5=81 to 100%) | 5 (5=81 to 100%) | 3 (3=41 to 60%) | 5 (5=81 to 100%) | 5 (5=81 to 100%) | 5 (5=81 to 100%) | 3 (3=41 to 60%) |
| [O-][S+](CCC(F)F)c1c(Cl)cccc1Oc1ncc(Cl)cn1 (stereo not drawn) [Compound A95] | 5 (5=81 to 100%) | 5 (5=81 to 100%) | 5 (5=81 to 100%) | 5 (5=81 to 100%) | 4 (4=61 to 80%) | 2 (2=21 to 40%) | 1 (1=0 to 20%) | 4 (4=61 to 80%) |
| O=S(=O)(CCC(F)F)c1c(Cl)cccc1Oc1ncc(Cl)cn1 [Compound A96] | 5 (5=81 to 100%) | 5 (5=81 to 100%) | 5 (5=81 to 100%) | 5 (5=81 to 100%) | 5 (5=81 to 100%) | 5 (5=81 to 100%) | 5 (5=81 to 100%) | 5 (5=81 to 100%) |
| N#Cc1cccc(Oc2ncc(Cl)cn2)c1S(=O)(=O)CCC(F)F [Compound A97] | 5 (5=81 to 100%) | 4 (4=61 to 80%) | 4 (4=61 to 80%) | 5 (5=81 to 100%) | 5 (5=81 to 100%) | 4 (4=61 to 80%) | 2 (2=21 to 40%) | 4 (4=61 to 80%) |
| N#Cc1cccc(Oc2ncc(Cl)cn2)c1[S+]([O-])CCC(F)F (stereo not drawn) [Compound A98] | 5 (5=81 to 100%) | 5 (5=81 to 100%) | 5 (5=81 to 100%) | 5 (5=81 to 100%) | 5 (5=81 to 100%) | 4 (4=61 to 80%) | 4 (4=61 to 80%) | 4 (4=61 to 80%) |
| N#Cc1cccc(Oc2ncc(Cl)cn2)c1SCCC(F)F [Compound A99] | 5 (5=81 to 100%) | 5 (5=81 to 100%) | 5 (5=81 to 100%) | 5 (5=81 to 100%) | 5 (5=81 to 100%) | 5 (5=81 to 100%) | 4 (4=61 to 80%) | 4 (4=61 to 80%) |
| N#Cc1cccc(Oc2ncc(Cl)cn2)c1SCCCC(F)F [Compound A100] | 5 (5=81 to 100%) | 5 (5=81 to 100%) | 5 (5=81 to 100%) | 5 (5=81 to 100%) | 5 (5=81 to 100%) | 5 (5=81 to 100%) | 4 (4=61 to 80%) | 5 (5=81 to 100%) |
